Data published in patent US12077503B2, “Substituted cyclic amides and their use as herbicides” (FMC CORPORATION, priority 2015, dated 2024).

Key:
Assay type in all cases: in vivo
[1] = system: barnyardgrass (Echinochloa crus-galli); assay: Test G Pre-Emergence Protocol; details: Echinochloa crus-galli, pre-emergence, 312 h, evaluated after 13 days; for pest or weed control at 15.625 g/ha: 15.625 g ai/ha; for pest or weed control at 15.625 g/ha / pest or weed control at 250 g/ha: read-out: Barnyardgrass damage rating (100=total damage to plant; 0=no damage to plant); for pest or weed control at 62.5 g/ha: 62.5 g ai/ha, 100=total damage to plant, 0=no damage to plant, read-out: Barnyardgrass damage rating; for pest or weed control at 250 g/ha: 250 g ai/ha
Outline: (§1)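 Test compound in 0.5% Tween 20 acetone/water (50:50) was applied at three rates (15.625, 62.5, 250 g/ha) to soil sown one day earlier. After 13 days plants were scored for injury, where 0 means unaffected and 100 means completely damaged.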

corn (Zea mays) [2] = assay: Test G Pre-Emergence Protocol; details: Zea mays, pre-emergence, 312 h, evaluated after 13 days; for plant injury at 15.625 g/ha: 15.625 g ai/ha; for plant injury at 15.625 g/ha / plant injury at 250 g/ha: read-out: Corn damage rating (100=total damage to plant; 0=no damage to plant); for plant injury at 62.5 g/ha: 62.5 g ai/ha, 100=total damage to plant, 0=no damage to plant, read-out: Corn damage rating; for plant injury at 250 g/ha: 250 g ai/ha
Outline: as §1

[3] = system: giant foxtail (Setaria faberi); assay: Test G Pre-Emergence Protocol; details: Setaria faberi, pre-emergence, 312 h, evaluated after 13 days; for pest or weed control at 15.625 g/ha: 15.625 g ai/ha; for pest or weed control at 15.625 g/ha / pest or weed control at 250 g/ha: read-out: Foxtail, Giant damage rating (100=total damage to plant; 0=no damage to plant); for pest or weed control at 62.5 g/ha: 62.5 g ai/ha, 100=total damage to plant, 0=no damage to plant, read-out: Foxtail, Giant damage rating; for pest or weed control at 250 g/ha: 250 g ai/ha
Outline: as §1

[4] = system: ivy-leaved morning glory (Ipomoea hederacea); assay: Test G Pre-Emergence Protocol; details: Ipomoea, pre-emergence, 312 h, evaluated after 13 days; for pest or weed control at 15.625 g/ha: 15.625 g ai/ha; for pest or weed control at 15.625 g/ha / pest or weed control at 250 g/ha: read-out: Morningglory, Ivy-leaved damage rating (100=total damage to plant; 0=no damage to plant); for pest or weed control at 62.5 g/ha: 62.5 g ai/ha, 100=total damage to plant, 0=no damage to plant, read-out: Morningglory, Ivy-leaved damage rating; for pest or weed control at 250 g/ha: 250 g ai/ha
Outline: as §1

[5] = system: redroot pigweed (Amaranthus retroflexus); assay: Test G Pre-Emergence Protocol; details: Amaranthus retroflexus, pre-emergence, 312 h, evaluated after 13 days; for pest or weed control at 15.625 g/ha: 15.625 g ai/ha; for pest or weed control at 15.625 g/ha / pest or weed control at 250 g/ha: read-out: Pigweed, Redroot damage rating (100=total damage to plant; 0=no damage to plant); for pest or weed control at 62.5 g/ha: 62.5 g ai/ha, 100=total damage to plant, 0=no damage to plant, read-out: Pigweed, Redroot damage rating; for pest or weed control at 250 g/ha: 250 g ai/ha
Outline: as §1

[6] = system: velvetleaf (Abutilon theophrasti); assay: Test G Pre-Emergence Protocol; details: Abutilon theophrasti, pre-emergence, 312 h, evaluated after 13 days; for pest or weed control at 15.625 g/ha: 15.625 g ai/ha; for pest or weed control at 15.625 g/ha / pest or weed control at 250 g/ha: read-out: Velvetleaf damage rating (100=total damage to plant; 0=no damage to plant); for pest or weed control at 62.5 g/ha: 62.5 g ai/ha, 100=total damage to plant, 0=no damage to plant, read-out: Velvetleaf damage rating; for pest or weed control at 250 g/ha: 250 g ai/ha
Outline: as §1

[7] = system: barnyardgrass (Echinochloa crus-galli); assay: Test G Post-Emergence Protocol; details: Echinochloa crus-galli, post-emergence, 312 h, read-out: Barnyardgrass damage rating; for pest or weed control at 15.625 g/ha: 15.625 g ai/ha, evaluated after 13 days (100=total damage to plant; 0=no damage to plant); for pest or weed control at 62.5 g/ha: 62.5 g ai/ha; for pest or weed control at 62.5 g/ha / pest or weed control at 250 g/ha: evaluated after 13 days, 100=total damage to plant, 0=no damage to plant; for pest or weed control at 250 g/ha: 250 g ai/ha
Outline: (§2)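 Pot-grown seedlings, 8 days old, raised in a glasshouse at 24/16 °C day/night with 14 h light and 65% humidity, were sprayed post-emergence with test compound in acetone/water (50:50) plus 0.5% Tween 20 at 15.625, 62.5 or 250 g/ha. Damage was scored visually 13 days later on a 0–100 scale (100 = total damage).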

corn (Zea mays) [8] = assay: Test G Post-Emergence Protocol; details: Zea mays, post-emergence, 312 h, read-out: Corn damage rating; for plant injury at 15.625 g/ha: 15.625 g ai/ha, evaluated after 13 days (100=total damage to plant; 0=no damage to plant); for plant injury at 62.5 g/ha: 62.5 g ai/ha; for plant injury at 62.5 g/ha / plant injury at 250 g/ha: evaluated after 13 days, 100=total damage to plant, 0=no damage to plant; for plant injury at 250 g/ha: 250 g ai/ha
Outline: as §2

[9] = system: giant foxtail (Setaria faberi); assay: Test G Post-Emergence Protocol; details: Setaria faberi, post-emergence, 312 h, read-out: Foxtail, Giant damage rating; for pest or weed control at 15.625 g/ha: 15.625 g ai/ha, evaluated after 13 days (100=total damage to plant; 0=no damage to plant); for pest or weed control at 62.5 g/ha: 62.5 g ai/ha; for pest or weed control at 62.5 g/ha / pest or weed control at 250 g/ha: evaluated after 13 days, 100=total damage to plant, 0=no damage to plant; for pest or weed control at 250 g/ha: 250 g ai/ha
Outline: as §2

[10] = system: ivy-leaved morning glory (Ipomoea hederacea); assay: Test G Post-Emergence Protocol; details: Ipomoea, post-emergence, 312 h, read-out: Morningglory, Ivy-leaved damage rating; for pest or weed control at 15.625 g/ha: 15.625 g ai/ha, evaluated after 13 days (100=total damage to plant; 0=no damage to plant); for pest or weed control at 62.5 g/ha: 62.5 g ai/ha; for pest or weed control at 62.5 g/ha / pest or weed control at 250 g/ha: evaluated after 13 days, 100=total damage to plant, 0=no damage to plant; for pest or weed control at 250 g/ha: 250 g ai/ha
Outline: as §2

[11] = system: redroot pigweed (Amaranthus retroflexus); assay: Test G Post-Emergence Protocol; details: Amaranthus retroflexus, post-emergence, 312 h, read-out: Pigweed, Redroot damage rating; for pest or weed control at 15.625 g/ha: 15.625 g ai/ha, evaluated after 13 days (100=total damage to plant; 0=no damage to plant); for pest or weed control at 62.5 g/ha: 62.5 g ai/ha; for pest or weed control at 62.5 g/ha / pest or weed control at 250 g/ha: evaluated after 13 days, 100=total damage to plant, 0=no damage to plant; for pest or weed control at 250 g/ha: 250 g ai/ha
Outline: as §2

[12] = system: velvetleaf (Abutilon theophrasti); assay: Test G Post-Emergence Protocol; details: Abutilon theophrasti, post-emergence, 312 h, read-out: Velvetleaf damage rating; for pest or weed control at 15.625 g/ha: 15.625 g ai/ha, evaluated after 13 days (100=total damage to plant; 0=no damage to plant); for pest or weed control at 62.5 g/ha: 62.5 g ai/ha; for pest or weed control at 62.5 g/ha / pest or weed control at 250 g/ha: evaluated after 13 days, 100=total damage to plant, 0=no damage to plant; for pest or weed control at 250 g/ha: 250 g ai/ha
Outline: as §2

| SMILES | pest or weed control at 15.625 g/ha [1] | pest or weed control at 62.5 g/ha [1] | pest or weed control at 250 g/ha [1] | plant injury at 15.625 g/ha (corn (Zea mays) [2]) | plant injury at 62.5 g/ha (corn (Zea mays) [2]) | plant injury at 250 g/ha (corn (Zea mays) [2]) | pest or weed control at 15.625 g/ha [3] | pest or weed control at 62.5 g/ha [3] | pest or weed control at 250 g/ha [3] | pest or weed control at 15.625 g/ha [4] | pest or weed control at 62.5 g/ha [4] | pest or weed control at 250 g/ha [4] | pest or weed control at 15.625 g/ha [5] | pest or weed control at 62.5 g/ha [5] | pest or weed control at 250 g/ha [5] | pest or weed control at 15.625 g/ha [6] | pest or weed control at 62.5 g/ha [6] | pest or weed control at 250 g/ha [6] | pest or weed control at 15.625 g/ha [7] | pest or weed control at 62.5 g/ha [7] | other results |
| --- | --- | --- | --- | --- | --- | --- | --- | --- | --- | --- | --- | --- | --- | --- | --- | --- | --- | --- | --- | --- | --- |
| CN1C[C@H](c2ccnc(C(C)(C)C)n2)[C@@H](C(=O)Nc2ccc(F)c(F)c2F)C1=O (racemic) [Compound 1770] | 0% | 20% | 70% | 0% | 0% | 0% | 0% | 50% | 80% | 0% | 0% | 30% | 0% | 0% | 10% | 0% | 0% | 20% | 0% | 0% | pest or weed control at 250 g/ha [7]: 70%; plant injury at 15.625 g/ha (corn (Zea mays) [8]): 0%; plant injury at 62.5 g/ha (corn (Zea mays) [8]): 0%; plant injury at 250 g/ha (corn (Zea mays) [8]): 0%; pest or weed control at 15.625 g/ha [9]: 0%; pest or weed control at 62.5 g/ha [9]: 20%; pest or weed control at 250 g/ha [9]: 70%; pest or weed control at 15.625 g/ha [10]: 0%; pest or weed control at 62.5 g/ha [10]: 10%; pest or weed control at 250 g/ha [10]: 20%; pest or weed control at 15.625 g/ha [11]: 0%; pest or weed control at 62.5 g/ha [11]: 20%; pest or weed control at 250 g/ha [11]: 40%; pest or weed control at 15.625 g/ha [12]: 0%; pest or weed control at 62.5 g/ha [12]: 10%; pest or weed control at 250 g/ha [12]: 30% |
| CN1C[C@H](c2ccc(C(F)(F)F)cc2)[C@@H](C(=O)Nc2cnccc2C#N)C1=O (racemic) [Compound 1760] | 0% | 0% | 0% | 0% | 0% | 0% | 0% | 0% | 30% | 0% | 0% | 0% | 0% | 0% | 0% | 0% | 0% | 0% | 0% | 0% | pest or weed control at 250 g/ha [7]: 10%; plant injury at 15.625 g/ha (corn (Zea mays) [8]): 0%; plant injury at 62.5 g/ha (corn (Zea mays) [8]): 0%; plant injury at 250 g/ha (corn (Zea mays) [8]): 10%; pest or weed control at 15.625 g/ha [9]: 0%; pest or weed control at 62.5 g/ha [9]: 0%; pest or weed control at 250 g/ha [9]: 20%; pest or weed control at 15.625 g/ha [10]: 0%; pest or weed control at 62.5 g/ha [10]: 0%; pest or weed control at 250 g/ha [10]: 20%; pest or weed control at 15.625 g/ha [11]: 0%; pest or weed control at 62.5 g/ha [11]: 0%; pest or weed control at 250 g/ha [11]: 0%; pest or weed control at 15.625 g/ha [12]: 0%; pest or weed control at 62.5 g/ha [12]: 0%; pest or weed control at 250 g/ha [12]: 10% |
